Test results as given in patent US10233161B2, “Pharmaceutical compositions and salts of a 1,2,4-oxadiazole benzoic acid” (PTC Therapeutics, Inc., priority 2014, dated 2019).

Assays:
[1] = Comparative equilibrium solubility study of micronized and non-micronized Compound 1; assay type: physicochemical
Procedure: Objective: The purpose of this study was to evaluate the solubility of micronized and non-micronized Compound 1. The solubility study was conducted in two representative media in pH 1 (0.1 N HCl with 0.5% sodium lauryl sulfate) and in pH 7.4 (0.1M phosphate buffered saline). The experiment further compared the initial rate of dissolution and equilibrium solubilities of micronized and non-micronized Compound 1 over a period of time.
Solubility measurement procedure comprised the steps of: 1) weighing and mixing approximately 100 mg of micronized Compound 1 and 100 mL of 0.1N HCl with 0.5% SLS into amber jar 1; 2) weighing and mixing approximately 100 mg of micronized Compound 1 and 100 mL of PBS into amber jar 2; 3) weighing and mixing approximately 100 mg of non-micronized Compound 1 and 100 mL of 0.1N HCl with 0.5% SLS into amber jar 3; 4) weighing and mixing approximately 100 mg of non-micronized Compound 1 and 100 mL of PBS into amber jar 4; 5) mixing all samples in their respective amber jars using a multi purpose rotator for 2 hours; 4) sampling at 5 minutes, 10 minutes, 30 minutes, 60 minutes, 90 minutes, 120 minutes; 5) filtering the samples and 6) analyzing the filtrates using HPLC. For each time point, 10 mL of sample was drawn using a 10 mL syringe with a needle attached filter and using a syringe-top 0.45 μm PTFE syringe filter. The first 9 mL of the samples collected were put back into the original amber jar and then remaining 1 mL was transferred to HPLC vial for analysis.

[2] = tested on: nonsense mutation in the mouse PAX6 gene; assay: Nonsense mutation mouse model of aniridia (PAX6^Sey+/−); assay type: in vivo
Procedure: Compound 1 was administered subcutaneously to PAX6 mutant and wild-type mice for 10 days (Postnatal Day 4-14) or administered topically as an ophthalmic suspension formulation (0.9% sodium chloride, 1% Tween 80, 1% powdered Compound 1, 1% carboxymethylcellulose), twice per day for 46 days (Postnatal Day 14-60). […] In the untreated mutant mouse group, progressive in-folding of the retina and abnormally small lenses was observed.
(§1) Additional successful results were achieved after topical administration of Compound 1 directly into the eye as an ophthalmic suspension formulation (0.9% sodium chloride, 1% Tween 80, 1% powdered Compound 1, 1% carboxymethylcellulose). The lens and retinal defects, observed in the untreated eyes, reversed in the Compound 1-treated mutant mice and closely resembled wild-type mice (FIG. 36B). […] Treatment with Compound 1 caused an increase in the PAX6 protein by 90% in the corneal and retinal epithelium protein lysates compared to wild-type mice (FIG. 36C) as measured by enzyme-linked immunosorbent assay (ELISA).
As a test for effects on visual acuity in the mice, the optokinetic tracking response was measured, which is a behavioural response mediated through the retina-brain circuitry.

[3] = tested on: splice-site mutation in PAX6 (PAX6^Sey-1Neu); assay: Mouse model containing a splice-site mutation in PAX6 (PAX6^Sey-1Neu); assay type: in vivo
From the text: as §1

[4] = Aqueous solubility determination of salts; assay type: physicochemical; details: for pH (aqueous solubility): pH at aqueous solubility; for pH / Solubility: Table 10; for pH: pH of the filtrate; for Solubility: 500 rpm, free acid by HPLC
Procedure: Each salt was suspended in water and shaken for 24 h at 25° C. and 500 rpm. The resulting suspensions were filtered (0.1 μm filter). The obtained solid residues were analyzed by FT-Raman. The pH of the filtrate was measured, and the concentration of the free acid was determined by HPLC.

[5] = Dynamic Vapor Sorption (DVS) / hygroscopicity; assay type: physicochemical; details: for DVS behaviour (figure legend): FIG. 17-21; for DVS result: Table 4; for Hygroscopicity (class): classified according to the European Pharmacopoeia; for DVS water uptake: from 80% to 95% r.h. (equilibrium reached); for Hygroscopicity (mass change): mass change in the range 0→85% r.h.; for DVS mass remaining higher than the original mass: upon lowering the relative humidity again (to 50% r.h.)
Procedure: DVS measurements (50%→0%→95%→50% r.h.) were performed on the samples of potassium salt 1, sodium salt 1, tromethamine salt 1, L-lysine salt and magnesium salt 2.

[6] = Crystallinity estimated from PXRD; assay type: physicochemical; set-up: key: +++ = high; ++ = good; + low
[7] = subcutaneous, 10 days (Postnatal Day 4-14), PAX6 mutant mice
[8] = topical 1% ophthalmic suspension

| SMILES | Aqueous solubility ([4]; Table 2, water, 24 h, 25° C.) | Aqueous solubility ([4]; Table 4) | pH (aqueous solubility) ([4]; Table 4) | pH [4] | Solubility ([4]; water, 24 h, 25° C.) | DVS behaviour (figure legend) [5] | DVS result [5] | Hygroscopicity (class) [5] | DVS water uptake [5] | Hygroscopicity (mass change) [5] | DVS mass remaining higher than the original mass [5] | Crystallinity [6] | also measured |
| --- | --- | --- | --- | --- | --- | --- | --- | --- | --- | --- | --- | --- | --- |
| O=C(O)c1cccc(-c2noc(-c3ccccc3F)n2)c1 [Compound 1, 3-[5-(2-fluoro-phenyl)-[1,2,4]oxadiazol-3-yl]-benzoic acid] | – | – | – | – | – | – | – | – | – | – | – | – | Time at which solubility equilibrium was reached ([1]; pH 1 media): approximately 30 minutes; Time at which equilibrium solubility was reached ([1]; pH 7.4 media): approximately 2 hours; Optokinetic tracking response (visual acuity) ([2]; spatial frequency threshold, treated mutant mice): significant improvement in the spatial frequency threshold; Increase of the size of the lens [2, 7]: 70%; Retinal in-folding [2, 7]: corrected the retinal in-folding; Disease progression and malformation ([2]; summary for the aniridia model): inhibited disease progression and reversed malformation in the cornea, lens and retina; Histological examination of the cornea [2, 8]: decreased corneal thickening; Retina response to light stimulation [2, 8]: increased response to light stimulation; Lens and retinal defects ([2]; topical 1% ophthalmic suspension, twice per day, Postnatal Day 14-60): reversed; Increase in the PAX6 protein ([2]; topical 1% ophthalmic suspension, corneal and retinal epithelium protein lysates, ELISA): 90%; Response to therapy [3]: did not show a response |
| O=C([O-])c1cccc(-c2noc(-c3ccccc3F)n2)c1.[K+] [Potassium salt 1] | 57 mg/mL | 57.00 mg/mL | 9.2 | 9.2 | 57 mg/mL | small irreversible water uptake | H not detected; DVS: hygroscopic sample, hydrate formation; (increase of the mass is less than 15% and equal or greater than 2%) | (hygroscopic) (increase of the mass is less than 15% and equal or greater than 2%) | roughly 3 wt. % | +7.81 wt % | ~1 wt. % | + | DVS mass loss ([5]; humidity decreased to 0% r.h. (equilibrium not reached)): ~6 wt. %; DVS water uptake (mass change) ([5]; humidity further increased to 80% r.h.): ~1.5 wt. % |
| O=C([O-])c1cccc(-c2noc(-c3ccccc3F)n2)c1.[Na+] [Sodium salt 1] | 22 mg/mL | 22.22 mg/mL | 8.3 | 8.3 | 22 mg/mL | stepwise irreversible water uptake | acidic H not detected; DVS: hygroscopic sample, hydrate (increase of the mass is less than 15% and equal or greater than 2%) | (very hygroscopic) (increase of the mass ≥15%) | – | +19.52 wt % | ~16 wt. % | ++ | DVS reversible mass change ([5]; 50% to 0% r.h. and again to 50% r.h.): 2 wt. %; DVS water uptake in one step ([5]; from 50% to 62% r.h.): Approximately 10 wt. %; DVS further water uptake, second step ([5]; humidity increased to 80% r.h. (equilibrium not reached)): ~6 wt. %; DVS water uptake up to 95% r.h. ([5]; humidity increased to 95% r.h.): 20 wt. % |
| NC(CO)(CO)CO.O=C(O)c1cccc(-c2noc(-c3ccccc3F)n2)c1 [Tromethamine salt 1] | 18 mg/mL | – | – | 8.1 | 18 mg/mL | large reversible water uptake with hysteresis | hygroscopic sample; Aqueous solubility (increase of the mass is less than 15% and equal or greater than 2%) | (hygroscopic) (increase of the mass is less than 15% and equal or greater than 2%) | ~25 wt. % | +3.59 wt % | – | +++ | DVS weight loss to a value lower than the original mass ([5]; below 70% r.h. on the way down): 3 wt. %; DVS mass change ([5]; humidity decreased to 0% r.h. and then raised to 80% r.h.): no significant mass change; DVS overall weight loss ([5]; whole DVS cycle): 3% |
